pEC50: −log10 of the molar value. Calls of active or inactive are those of the source.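 The calls were made as follows: active = a full or partial dose-response curve in at least two of three replicate runs; inactive = the rest.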
The compounds below were run against D(1B) dopamine receptor (Homo sapiens) (UniProt P21918) (assay: D5 receptor allosteric modulators, concentration-response – cell-based, HEK293, CRE-luciferase, luminescence, EC30 dopamine, selectivity assay for D1 allosteric modulator project, dose response (AID 857);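 also: HEK 293 cells expressing human D5 with a CRE-driven luciferase reporter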).
D(1B) dopamine receptor (Homo sapiens), sequence (P21918 whole entry, looked up): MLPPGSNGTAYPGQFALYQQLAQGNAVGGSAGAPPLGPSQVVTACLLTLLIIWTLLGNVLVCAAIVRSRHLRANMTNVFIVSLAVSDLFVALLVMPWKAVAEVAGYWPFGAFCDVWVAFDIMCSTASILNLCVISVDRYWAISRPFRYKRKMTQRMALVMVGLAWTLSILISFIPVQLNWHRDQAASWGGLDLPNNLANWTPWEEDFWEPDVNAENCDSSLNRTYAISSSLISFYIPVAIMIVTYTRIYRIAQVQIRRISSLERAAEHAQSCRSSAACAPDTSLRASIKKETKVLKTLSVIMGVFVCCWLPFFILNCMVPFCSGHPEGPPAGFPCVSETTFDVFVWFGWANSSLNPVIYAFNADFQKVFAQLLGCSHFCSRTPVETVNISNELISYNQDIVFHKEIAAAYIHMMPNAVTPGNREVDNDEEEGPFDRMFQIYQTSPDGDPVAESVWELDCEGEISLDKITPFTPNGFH

Row | Compound | outcome | pEC50
1 | COc1ccc(CN2CCN(S(=O)(=O)c3ccccc3)CC2)c(OC)c1 | inactive | 
2 | CCCCN(CC)C(=O)c1ccc(Cl)c(Cl)c1 | inactive | 
3 | CCc1ccc(C2=Nn3c(nnc3-c3cccs3)SC2)cc1 | inactive | 
4 | O=C1COc2ccc(C(=O)c3ccccc3)cc2CN1 | inactive | 
5 | OCCn1nc2c3ccccc3nc-2n(-c2ccccc2)c1=S | inactive | 
6 | CCOC(=O)N1CCN(C(=O)CCCn2c(=S)[nH]c3ccccc3c2=O)CC1 | inactive | 
7 | CSC1=NCCN1C(=O)Cc1cccs1 | inactive | 
8 | CCOC(=O)C1=C(C)Nc2nc(SC)nn2C1c1ccc(C(=O)OC)cc1 (centres undefined) | inactive | 
9 | C=CCSc1nnc2n(-c3ccccc3OC)c(=O)c3c4c(sc3n12)CCC4 | inactive | 
10 | CC(=O)Nc1nc2n(n1)C(c1ccccc1)C=C(c1ccccc1)N2 (centres undefined) | inactive | 
11 | CSc1nc2oc3c(c2c2nncn12)CC(C)(C)SC3 | inactive | 
12 | O=C1c2ccccc2-c2onc3ccc(NCCCn4ccnc4)c1c23 | inactive | 
13 | Cc1oc2ccc(OCC(N)=O)cc2c1C(=O)OC(C)C | inactive | 
14 | COc1ccc(C(=O)Nc2nnc(Cc3cccs3)s2)cc1OC | inactive | 
15 | CCN(CC)c1nc(N)c2c(N)nc3c(c2c1C#N)CC(c1ccccc1)O3 (centres undefined) | inactive | 
16 | Cc1cc(NCCCn2ccnc2)n2c(nc3ccccc32)c1C#N | inactive | 
17 | OCCNc1ncnc2c1c(-c1ccccc1)c(-c1ccccc1)n2Cc1ccco1 | inactive | 
18 | CCn1cc(C(=O)OCC(=O)OC2CC(C)CCC2C(C)C)c(=O)c2ccc(C)nc21 (centres undefined) | inactive | 
19 | Cc1ccc(C2C(C#N)=C(N)Oc3n[nH]c(-c4cccs4)c32)s1 (centres undefined) | inactive | 
20 | Cc1ccc(-c2cc(-c3ccc4c(c3)OCO4)c(C#N)c(N)n2)o1 | inactive | 
21 | O=C(C1CCC1)N1CCc2cc(S(=O)(=O)NCc3cccnc3)ccc21 | inactive | 
22 | Cc1c(-c2ccccc2)nc(N)c(C#N)c1-c1ccco1 |  | 5.70
23 | CCOC(=O)c1cnn(-c2cccc(Cl)c2)c1N | inactive | 
24 | c1ccc(C2=Nn3c(nnc3-c3ccncc3)SC2)cc1 | inactive | 
25 | CCOc1ccc(CC(=O)Nc2c(C(N)=O)oc3ccccc23)cc1OCC | inactive | 
26 | Cn1c(Cn2c(=O)sc3ccccc32)nnc1SCC(=O)N1CCOCC1 | inactive | 
27 | COc1ccc(-n2nc3ccccc3n2)cc1 | inactive | 

Row | Compound | outcome | pEC50
28 | CCC(=O)n1nc(-c2ccco2)nc1N | inactive | 
29 | CCOC(=O)c1ccc(Oc2cc(C)nc(SC)n2)cc1 | inactive | 
30 | CCN(CC)CCOc1c(Br)ccc2c1sc1nc3n(c(=O)c12)CCC3 | inactive | 
31 | CCOC(=O)C1CCCN(C(=O)c2cc(Cl)ccc2Cl)C1 (centres undefined) | inactive | 
32 | CSc1oc(-c2ccco2)nc1S(=O)(=O)c1ccc(Br)cc1 | inactive | 
33 | CCOc1ccccc1C1CC(c2ccccc2)Nc2nc(N)nn21 (centres undefined) | inactive | 
34 | Cc1cc(NS(=O)(=O)c2ccc(NC(=O)COc3ccccc3C(C)C)cc2)no1 | inactive | 
35 | CSc1ccc(C2C(C#N)=C(N)N(c3ccccc3)C3=C2C(=O)CCC3)cc1 (centres undefined) | inactive | 
36 | COc1ccc2c(C(F)(F)F)cc(=O)oc2c1C | inactive | 
37 | CCn1nc(C(=O)OCC(=O)N2c3ccccc3CC2C)c2ccccc2c1=O (centres undefined) | inactive | 
38 | CN1CCN(CC(O)COCc2ccc3c(c2)OCO3)CC1 (centres undefined) | inactive | 
39 | O=C(NCc1cccs1)C1CC(c2ccccc2O)=NO1 (centres undefined) | inactive | 
40 | O=C(NCc1ccco1)c1cnn2c(C(F)(F)F)cc(-c3ccco3)nc12 | inactive | 
41 | COc1ccc2cc3c(N)nn(C(=O)Cc4ccccc4OC)c3nc2c1 |  | 6.20
42 | CCC(C)Nc1nc(OC)nc(N(C)C#N)n1 (centres undefined) | inactive | 
43 | O=C(CSc1nc2ccccc2s1)NC(=O)NCc1ccco1 | inactive | 
44 | C=CCn1c2ccccc2c2nnc(SCC(=O)NC(C(=O)OC)C(C)C)nc21 (centres undefined) | inactive | 
45 | O=C(Nc1cc(Cl)ccc1N1CCOCC1)c1cnccn1 | inactive | 
46 | CCCCn1c(=O)c(C(=O)Nc2cnccn2)c(O)c2ccccc21 | inactive | 
47 | COc1ccccc1NC(=O)N(Cc1ccc2c(c1)OCO2)Cc1nc2ccccc2c(=O)[nH]1 | inactive | 
48 | Nc1nc(SCc2ccc3c(c2)OCCO3)n[nH]1 | inactive | 
49 | c1ccc2c(c1)CCCN2c1nc2ccccc2n2cnnc12 | inactive | 
50 | NC1=NC(c2cn(-c3ccccc3)nc2-c2cccs2)n2c(nc3ccccc32)N1 (centres undefined) | inactive | 
51 | NC(=O)c1c(NC(=O)CSc2nnc(-c3ccco3)n2-c2ccccc2)sc2c1CCC2 | inactive | 
52 | CCc1nnc(NC(=O)CSc2ncc(-c3ccccc3)n2CC)s1 | inactive | 
53 | CCOC(=O)N1CCC(N2Cc3cccc(C(=O)NC(C)c4ccc5c(c4)OCCO5)c3C2=O)CC1 (centres undefined) | inactive | 
54 | COc1ccccc1CNC(=O)c1ccc(NS(=O)(=O)c2c(C)noc2C)cc1 | inactive | 

Row | Compound | outcome | pEC50
55 | CCOC(=O)CN(C(=O)CSc1nnc(-c2ccc(OC)c(OC)c2)o1)c1ccc(F)cc1 | inactive | 
56 | CCCc1nc2sc3ccccc3c(=O)c2c(=O)n1Cc1ccco1 | inactive | 
57 | COc1ccc(OC)c(NC(=O)CSc2nc3ccccc3c(=O)n2CCNC(C)=O)c1 | inactive | 
58 | CCOc1nc(NCCc2ccc(OC)c(OC)c2)nc(NC(C)(C)CO)n1 | inactive | 
59 | O=C(CCc1ccc(CCC(=O)c2cccs2)s1)c1cccs1 | inactive | 
60 | Nc1nc2n(n1)C(c1ccccc1)CC(c1ccc(F)cc1)N2 (centres undefined) | inactive | 
61 | O=C(CC1SC(=NC2CCCCC2)NC1=O)Nc1ccccc1 (centres undefined) | inactive | 
62 | COc1ncnc2c1N=C1CC(C)(C)CC(N)=C1S2 | inactive | 
63 | Cc1nc(N2CCC(C(N)=O)CC2)c2nnn(Cc3ccccc3)c2n1 | inactive | 
64 | O=c1[nH]c2cc3c(cc2cc1C(c1nnnn1C1CCCC1)N1CCSCC1)OCCO3 (centres undefined) | inactive | 
65 | O=S(=O)(c1cccs1)N1CCN(c2ccccn2)CC1 | inactive | 
66 | CCC1(CC)C(=O)NC(=NCCc2c[nH]c3ccccc23)NC1=O | inactive | 
67 | N#CC1=C(N)N(c2ccccc2)C2=C(C(=O)CCC2)C1c1cccs1 (centres undefined) | inactive | 
68 | CCCCSc1nc2c(cnn2-c2ccc(F)cc2)c(=O)[nH]1 | inactive | 
69 | O=c1cc(-c2ccccc2)c2c([nH]1)CCCC2 | inactive | 
70 | COCc1cc(C)nc2sc(C(=O)N3CCN(c4ccccc4)CC3)c(N)c12 |  | 6.67
71 | COc1ccc(-c2noc(CCN3C(=O)c4ccccc4C3=O)n2)cc1OC | inactive | 
72 | Clc1ccccc1Cn1nnc2c(N3CCCC3)ncnc21 | inactive | 
73 | COC(=O)c1ccc(C(=O)OC)c(NC(=O)COC(=O)C23CC4CC(CC(O)(C4)C2)C3)c1 | inactive | 
74 | Fc1ccc(NC2=NCCS2)cc1Cl | inactive | 
75 | COc1ccc(CN(Cc2cccnc2)S(=O)(=O)c2ccc(-n3cnnn3)c(C)c2)cc1OC | inactive | 
76 | Cc1cc(Br)c2c(c1)=C(c1sc(N3CCCCCC3)nc1O)C(=O)N=2 |  | 5.99
77 | c1ccc(-c2nn3c(-c4ccccc4)nnc3s2)cc1 | inactive | 
78 | CCOC(=O)c1cc2c(=O)n3ccccc3nc2n(CCCOC)c1=NC(=O)c1cccnc1 | inactive | 
79 | CSc1nc2c(c(=O)n1-c1ccccc1)SCC2 | inactive | 
